Results: patent US12077503B2, “Substituted cyclic amides and their use as herbicides” (FMC CORPORATION, priority 2015, dated 2024)

Columns and labels:
Type in all cases: in vivo
[1] = test system: barnyardgrass (Echinochloa crus-galli); experiment: Test G Pre-Emergence Protocol; conditions: Echinochloa crus-galli, pre-emergence, 312 h, evaluated after 13 days
Summary of the method: (§1)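 Seeds were sown in standard soil and kept one day in a glasshouse (24/16° C day/night, 14 h light, 65% humidity), then sprayed with compound in acetone/water (50:50) containing 0.5% Tween 20 at 15.625, 62.5 or 250 g/ha. Damage was scored after 13 days (0 = none, 100 = total).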

corn (Zea mays) [2] = experiment: Test G Pre-Emergence Protocol; conditions: Zea mays, pre-emergence, 312 h, evaluated after 13 days
Summary of the method: as §1

[3] = test system: giant foxtail (Setaria faberi); experiment: Test G Pre-Emergence Protocol; conditions: Setaria faberi, pre-emergence, 312 h, evaluated after 13 days
Summary of the method: as §1

[4] = test system: ivy-leaved morning glory (Ipomoea hederacea); experiment: Test G Pre-Emergence Protocol; conditions: Ipomoea, pre-emergence, 312 h, evaluated after 13 days
Summary of the method: as §1

[5] = test system: redroot pigweed (Amaranthus retroflexus); experiment: Test G Pre-Emergence Protocol; conditions: Amaranthus retroflexus, pre-emergence, 312 h, evaluated after 13 days
Summary of the method: as §1

[6] = test system: velvetleaf (Abutilon theophrasti); experiment: Test G Pre-Emergence Protocol; conditions: Abutilon theophrasti, pre-emergence, 312 h, evaluated after 13 days
Summary of the method: as §1

[7] = test system: barnyardgrass (Echinochloa crus-galli); experiment: Test G Post-Emergence Protocol; conditions: Echinochloa crus-galli, post-emergence, 312 h
Summary of the method: (§2)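 Seedlings grown 8 days in soil in a glasshouse (24/16 °C day/night, 14 h light, 65% humidity) were sprayed post-emergence with compound in acetone/water 50:50 plus 0.5% Tween 20 at 15.625, 62.5 or 250 g/ha. Damage was scored after 13 days on a 0–100 scale (100 = total damage).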

corn (Zea mays) [8] = experiment: Test G Post-Emergence Protocol; conditions: Zea mays, post-emergence, 312 h
Summary of the method: as §2

[9] = test system: giant foxtail (Setaria faberi); experiment: Test G Post-Emergence Protocol; conditions: Setaria faberi, post-emergence, 312 h
Summary of the method: as §2

[10] = test system: ivy-leaved morning glory (Ipomoea hederacea); experiment: Test G Post-Emergence Protocol; conditions: Ipomoea, post-emergence, 312 h
Summary of the method: as §2

[11] = test system: redroot pigweed (Amaranthus retroflexus); experiment: Test G Post-Emergence Protocol; conditions: Amaranthus retroflexus, post-emergence, 312 h
Summary of the method: as §2

[12] = test system: velvetleaf (Abutilon theophrasti); experiment: Test G Post-Emergence Protocol; conditions: Abutilon theophrasti, post-emergence, 312 h
Summary of the method: as §2

CN1C[C@H](c2ccc(C(F)(F)F)cc2)[C@@H](C(=O)Nc2ccccc2C(C)(C)C)C1=O (racemic) [Compound 1445]
0%: pest or weed control at 15.625 g/ha ([1]; 15.625 g ai/ha, read-out: Barnyard grass damage rating (100=total damage to plant; 0=no damage to plant)) | pest or weed control at 62.5 g/ha ([1]; 62.5 g ai/ha, 100=total damage to plant, 0=no damage to plant, read-out: plant damage rating, Barnyardgrass) | pest or weed control at 250 g/ha ([1]; 250 g ai/ha, read-out: Barnyardgrass damage rating (100=total damage to plant; 0=no damage to plant)) | plant injury at 15.625 g/ha (corn (Zea mays) [2]; 15.625 g ai/ha, read-out: Corn damage rating (100=total damage to plant; 0=no damage to plant)) | plant injury at 62.5 g/ha (corn (Zea mays) [2]; 62.5 g ai/ha, 100=total damage to plant, 0=no damage to plant, read-out: plant damage rating, Corn) | plant injury at 250 g/ha (corn (Zea mays) [2]; 250 g ai/ha, read-out: Corn damage rating (100=total damage to plant; 0=no damage to plant)) | pest or weed control at 15.625 g/ha ([3]; 15.625 g ai/ha, read-out: Foxtail, Giant damage rating (100=total damage to plant; 0=no damage to plant)) | pest or weed control at 62.5 g/ha ([3]; 62.5 g ai/ha, 100=total damage to plant, 0=no damage to plant, read-out: plant damage rating, Foxtail, Giant) | pest or weed control at 250 g/ha ([3]; 250 g ai/ha, read-out: Foxtail, Giant damage rating (100=total damage to plant; 0=no damage to plant)) | pest or weed control at 15.625 g/ha ([4]; 15.625 g ai/ha, read-out: Morning-glory, Ivy-leaved damage rating (100=total damage to plant; 0=no damage to plant)) | pest or weed control at 62.5 g/ha ([4]; 62.5 g ai/ha, 100=total damage to plant, 0=no damage to plant, read-out: plant damage rating, Morningglory, Ivy-leaved) | pest or weed control at 250 g/ha ([4]; 250 g ai/ha, read-out: Morningglory, Ivy-leaved damage rating (100=total damage to plant; 0=no damage to plant)) | pest or weed control at 15.625 g/ha ([5]; 15.625 g ai/ha, read-out: Pigweed, Redroot damage rating (100=total damage to plant; 0=no damage to plant)) | pest or weed control at 62.5 g/ha ([5]; 62.5 g ai/ha, 100=total damage to plant, 0=no damage to plant, read-out: plant damage rating, Pigweed, Redroot) | pest or weed control at 250 g/ha ([5]; 250 g ai/ha, read-out: Pigweed, Redroot damage rating (100=total damage to plant; 0=no damage to plant)) | pest or weed control at 15.625 g/ha ([6]; 15.625 g ai/ha, read-out: Velvetleaf damage rating (100=total damage to plant; 0=no damage to plant)) | pest or weed control at 62.5 g/ha ([6]; 62.5 g ai/ha, 100=total damage to plant, 0=no damage to plant, read-out: plant damage rating, Velvetleaf) | pest or weed control at 250 g/ha ([6]; 250 g ai/ha, read-out: Velvetleaf damage rating (100=total damage to plant; 0=no damage to plant)) | pest or weed control at 15.625 g/ha ([7]; 15.625 g ai/ha, evaluated after 13 days (100=total damage to plant; 0=no damage to plant), read-out: Barnyardgrass damage rating) | pest or weed control at 62.5 g/ha ([7]; 62.5 g ai/ha, evaluated after 13 days, read-out: Barnyardgrass damage rating (100=total damage to plant; 0=no damage to plant)) | pest or weed control at 250 g/ha ([7]; 250 g ai/ha, evaluated after 13 days, read-out: damage to plant, Barnyardgrass (100=total damage to plant; 0=no damage to plant)) | plant injury at 15.625 g/ha (corn (Zea mays) [8]; 15.625 g ai/ha, evaluated after 13 days (100=total damage to plant; 0=no damage to plant), read-out: Corn damage rating) | plant injury at 62.5 g/ha (corn (Zea mays) [8]; 62.5 g ai/ha, evaluated after 13 days, read-out: Corn damage rating (100=total damage to plant; 0=no damage to plant)) | plant injury at 250 g/ha (corn (Zea mays) [8]; 250 g ai/ha, evaluated after 13 days, read-out: damage to plant, Corn (100=total damage to plant; 0=no damage to plant)) | pest or weed control at 15.625 g/ha ([9]; 15.625 g ai/ha, evaluated after 13 days (100=total damage to plant; 0=no damage to plant), read-out: Foxtail, Giant damage rating) | pest or weed control at 62.5 g/ha ([9]; 62.5 g ai/ha, evaluated after 13 days, read-out: Foxtail, Giant damage rating (100=total damage to plant; 0=no damage to plant)) | pest or weed control at 250 g/ha ([9]; 250 g ai/ha, evaluated after 13 days, read-out: damage to plant, Foxtail, Giant (100=total damage to plant; 0=no damage to plant)) | pest or weed control at 15.625 g/ha ([10]; 15.625 g ai/ha, evaluated after 13 days (100=total damage to plant; 0=no damage to plant), read-out: Morningglory, Ivy-leaved damage rating) | pest or weed control at 62.5 g/ha ([10]; 62.5 g ai/ha, evaluated after 13 days, read-out: Morningglory, Ivy-leaved damage rating (100=total damage to plant; 0=no damage to plant)) | pest or weed control at 250 g/ha ([10]; 250 g ai/ha, evaluated after 13 days, read-out: damage to plant, Morningglory, Ivy-leaved (100=total damage to plant; 0=no damage to plant)) | pest or weed control at 15.625 g/ha ([11]; 15.625 g ai/ha, evaluated after 13 days (100=total damage to plant; 0=no damage to plant), read-out: Pigweed, Redroot damage rating) | pest or weed control at 62.5 g/ha ([11]; 62.5 g ai/ha, evaluated after 13 days, read-out: Pigweed, Redroot damage rating (100=total damage to plant; 0=no damage to plant)) | pest or weed control at 250 g/ha ([11]; 250 g ai/ha, evaluated after 13 days, read-out: damage to plant, Pigweed, Redroot (100=total damage to plant; 0=no damage to plant)) | pest or weed control at 15.625 g/ha ([12]; 15.625 g ai/ha, evaluated after 13 days (100=total damage to plant; 0=no damage to plant), read-out: Velvetleaf damage rating) | pest or weed control at 62.5 g/ha ([12]; 62.5 g ai/ha, evaluated after 13 days, read-out: Velvetleaf damage rating (100=total damage to plant; 0=no damage to plant)) | pest or weed control at 250 g/ha ([12]; 250 g ai/ha, evaluated after 13 days, read-out: damage to plant, Velvetleaf (100=total damage to plant; 0=no damage to plant))
